In patent US20070059385A1, “Safe pharmaceutical composition for treating and preventing cancer and method of use” (priority 2005, published 2007):
Where two headings read alike, the source gives them in different places.

Tests used:
L615 transplanted tumor = test: Growth of transplanted tumor in mice; type: in vivo; details: intraperitoneally, sacrificed on the 12th day
Experimental: Male mice, weight 20-22 g, were used in the experiment. 1×10^7 tumor cells were injected to mouse and other drugs injected intraperitoneally began second day. All mice were sacrificed on the 12th day, isolated the tumor and weighed and calculated the inhibition rate of tumor weight.
The effect of other drugs and HHT on the growth of animal transplanted tumor as illustrated by the Table 6.20 mg/kg of other drugs could inhibit the growth of L615 transplanted tumor.

gastric cancer cells = test: Cellular diversion of gastric cancer cells (NBT); type: cell-based
Experimental: The gastric cancer cells and normal cells were cultured in PRMI 1640 medium supplement with 10% FCS serum. Other method is similar to example 8.

[1] = tested on: NNK-induced lung tumorigenesis; test: NNK-induced lung tumorigenesis; type: in vivo; details: mice; drug 20 mg/kg daily by injection; 10 μmol NNK i.p.; pulmonary adenomas after sixteen weeks
Experimental: Every group had 20 mice. […] For control group, each mouse was gave same volume of physiological saline. Three days later, mice were gave 10 μmol NNK (in 0.1 ml saline) by i.p. injection. Sixteen weeks after these treatments the mice were killed and pulmonary adenomas were counted. The statistical significance of bioassay data was determined by student's test.

carcinogen-DNA binding = test: Inhibition of carcinogen-DNA binding; type: cell-based
Experimental: Cells were maintained in 75-cm^2 tissue culture flask with media supplemented with retinoic acid (0.1 μg/ml) and epinephrine (0.5 μg/ml). The cells were passage when they reached approximately 80% confluence and were maintained at 37° C. in 5% CO2. Cells were plated at a density of 5×10^5 cells/well in 6-well tissue culture plates and allowed to incubated for 18 h at 37° C. in 5% CO2. Following incubation, the DNA was harvested and resuspended in Tris-EDTA buffer. RNA was removed by treating with RNase T1 and RNase A at 37° C. for 1 h. An aliquot was used for determining the DNA content by the absorbency at 260 nm, and the rest of the sample was used to determine the radioactivity; the percentage inhibition of carcinogen-DNA binding was determined by measuring the cpm/mg of DNA in the carcinogen.

[2] = tested on: salmonella typhimurium strains TA97, TA98 and TA100; test: Salmonella mutagenicity assay, overall conclusion; details: conclusion from Table 14
Experimental: The method for detecting mutagenicity of HHT, with the Salmonella system that detects the reversion of the bacteria from His^− to His^+, is widely used.
The bacterial tester strains used for mutagenesis testing are TA97, TA98, TA100 and TA102. Mutagenesis testing method was done as described previously ^[77-88]. In brief, TA97, TA98, TA100 and TA102 were grown in agar gel culture. The petri plats (100×15 mm style) contain 30 ml with 2% glucose. The agar mixture was agitated vigorously and immediately poured into plates of minimal agar. The cultures were incubated at 37° C. in a dark and 5% CO2 in air for 48 hours. After 48 hours the colonies in both test and controls are counted. The presence of a background lawn of bacteria on the histidine-poor soft agar plate was used as an indication that gross toxic effects were absent. Mutagenicity assays were carried out at least in triplicate.
The range of spontaneous mutation rates for the individual strains, which were considered to be acceptable, was TA97 (100-170), TA98 (20-40) and TA100 (80-150).

HL-60 cells = test: Induction of differentiation (NBT reduction) of human leukemic cells; type: cell-based; details: Mu, GU, MAT, IND 50 ng/ml, higher NBT (%) means higher normal cells
Experimental: HL-60 cells were established from a patient with acute myeloid leukemia. The cells were cultured in culture flasks with RPMI plus 10% FCS.
Differentiation of HL-60 cells was assessed by their abilities to produced superoxide as measured by reduction of NBT, by NSE staining and by morphology as detected on cytospin preparations stained with Diff-Quick stain Set, and by analysis of membrane-bound differentiation markers with two-color immunofluorescence. Briefly, cells were preincubated at 4° C. for 60 min in 10% human AB serum and then with FITC-conjugated mouse IgGI isotype control. Analysis of fluorescence was performed on a flow cytometer.
HL-60 cells were culture in a two-layer soft agar system for 10 days without adding any growth factors as described previously, and colonies were counted using an inverted microscope. The analogues were added to the agar upper layer on day 0. For analysis of the reversibility of inhibition of proliferation, the cells were cultured in suspension culture with and without HHT or other drugs. After 60 hours, the culture flasks were gently jarred to loosen adherent cells, the cells were washed twice in cultured medium containing 10% FCS to remove the test drugs, and then the clonogenic assay was performed. NBT% indicated percentage of normal cells.

[3] = dog, in vivo
Description: Twenty normal adult dogs which weight approximately 10 kg±1 kg used in experiments.
Most deaths were caused by cardiac dysfunction.

With `COC(=O)C[C@](O)(CCCC(C)(C)O)C(=O)O[C@@H]1C(OC)=C[C@]23CCCN2CCc2cc4c(cc2[C@H]13)OCO4` [HHT, Homoharringtonine] the “Inhibition (%) of transplanted tumor (tumor weight)” value (L615 transplanted tumor) was 68 ± 7.2%, the “NBT (%)” value (gastric cancer cells) was 58 ± 8.9 % and the “Tumor incidence (%)” value [1] was 35.8 ± 4.5%. The “Inhibition (%) of carcinogen-DNA binding” value (carcinogen-DNA binding) was 56.8 ± 6.2%, the “carcinogenic and mutagenic action” value [2] was “no carcinogenic and mutagenic action” and the “NBT (%)” value (HL-60 cells) was 65 ± 7.0 %. For the same molecule, the “major target organs involved in toxicity” value [3] was “limited to G.I. tract, heart and hematopoietic organs”, the reversibility of toxicities [3] was “completely reversible upon discontinuation of treatment” and the “Abnormality of ECG, ST-T” value ([3]; 0.1 mg/kg/day) was “−”. The Anorexia ([3]; 0.1 mg/kg/day) was “+”, the Cardiac necrosis ([3]; 0.1 mg/kg/day) was “−” and the Diarrhea ([3]; 0.1 mg/kg/day) was “±”. For the same molecule, the Hepatic ecchymosis ([3]; 0.1 mg/kg/day) was “−”, the “Hepatic fibrosis and cirrhosis” value ([3]; 0.1 mg/kg/day) was “−” and the Hepatic necrosis ([3]; 0.1 mg/kg/day) was “−”. For the same molecule, the Marrow depression ([3]; 0.1 mg/kg/day) was “+”, the Renal necrosis ([3]; 0.1 mg/kg/day) was “−” and the Renal toxic nephropathy ([3]; 0.1 mg/kg/day) was “−”. The Seminal depression ([3]; 0.1 mg/kg/day) was “−”, the Spleen necrosis ([3]; 0.1 mg/kg/day) was “−” and the Vomiting ([3]; 0.1 mg/kg/day) was “+”. For the same molecule, the “Abnormality of ECG, ST-T” value ([3]; 0.2 mg/kg/day) was “±”, the Anorexia ([3]; 0.2 mg/kg/day) was “++” and the Cardiac necrosis ([3]; 0.2 mg/kg/day) was “−”. The Diarrhea ([3]; 0.2 mg/kg/day) was “+”, the Hepatic ecchymosis ([3]; 0.2 mg/kg/day) was “−” and the “Hepatic fibrosis and cirrhosis” value ([3]; 0.2 mg/kg/day) was “−”. For the same molecule, the Hepatic necrosis ([3]; 0.2 mg/kg/day) was “±”, the Marrow depression ([3]; 0.2 mg/kg/day) was “+” and the Renal necrosis ([3]; 0.2 mg/kg/day) was “−”. The Renal toxic nephropathy ([3]; 0.2 mg/kg/day) was “−”, the Seminal depression ([3]; 0.2 mg/kg/day) was “−” and the Spleen necrosis ([3]; 0.2 mg/kg/day) was “−”. For the same molecule, the Vomiting ([3]; 0.2 mg/kg/day) was “+”, the “Abnormality of ECG, ST-T” value ([3]; 0.3 mg/kg/day) was “+” and the Anorexia ([3]; 0.3 mg/kg/day) was “+++”. For the same molecule, the Cardiac necrosis ([3]; 0.3 mg/kg/day) was “±”, the Diarrhea ([3]; 0.3 mg/kg/day) was “+” and the Erythrocyte count ([3]; 0.3 mg/kg/day) was 3.40 ×10^6/mm^3. The Hepatic ecchymosis ([3]; 0.3 mg/kg/day) was “±”, the “Hepatic fibrosis and cirrhosis” value ([3]; 0.3 mg/kg/day) was “±” and the Hepatic necrosis ([3]; 0.3 mg/kg/day) was “+”. The Marrow depression ([3]; 0.3 mg/kg/day) was “++”, the Renal necrosis ([3]; 0.3 mg/kg/day) was “±” and the Renal toxic nephropathy ([3]; 0.3 mg/kg/day) was “±”. For the same molecule, the Seminal depression ([3]; 0.3 mg/kg/day) was “−”, the Spleen necrosis ([3]; 0.3 mg/kg/day) was “±” and the Vomiting ([3]; 0.3 mg/kg/day) was “++”.
